# Measurements as given in patent US20050036993A1, “Immune activation by double-stranded polynucleotides” (priority 1998, published 2005).
# Assays:
# vaccinia viruses = conditions: cited from earlier work
# herpes simplex = conditions: cited from earlier work
# [1] = tested on: MHC Class I, TAP-1, LMP2, MHC Class II, invariant chain, HLA-DM, 90K tumor-associated immunostimulator; test: Drug suppression of ds polynucleotide-induced MHC and antigen-presenting gene expression in FRTL-5 cells (Northern); type: cell-based, rat; conditions: for ability of dsDNA to increase MHC Class I, TAP-1, LMP2, MHC Class II, invariant chain, HLA-DM, and 90K gene expression / ability of dsRNA to increase MHC Class I, TAP-1, LMP2, MHC Class II, invariant chain, HLA-DM, and 90K gene expression: FRTL-5 cells with TSH (6H5) or without TSH (5H5), 48 hours pretreatment, compound 10 0.5 mM, MMI 5 mM; for ability of dsDNA to increase MHC Class I, TAP-1, LMP2, MHC Class II, invariant chain, HLA-DM, and 90K gene expression: 2-mercaptoimidazole 5 mM, 5 ug dsDNA; for dsDNA or dsRNA transfection efficiency: FRTL-5 cells, drug-treated; for ability of dsRNA to increase MHC Class I, TAP-1, LMP2, MHC Class II, invariant chain, HLA-DM, and 90K gene expression: 5 ug dsRNA
# FRTL-5 rat thyroid cells = test: DNA staining and cell cycle analysis (FACS) of FRTL-5 cells; type: cell-based; conditions: for cell cycle arrest: 5H medium 6 days then 6H medium (TSH 1×10^−10M), 5 mM methimazole or 0.5 mM compound 10; for percentage of cells in S + G2/M phase: Methimazole 5 mM, Compound 10 0.5 mM; for action of the ds nucleic acids on cell cycle progression: Table 2 experiment, 4H medium; for effect of ds nucleic acids on growth: summary statement
# Protocol: Cells were diploid and between their 5th and 25th passage. Fresh medium was added every 2 or 3 days and cells were passaged every 7-10 days. In some experiments, as noted, cells were grown to near confluency in 6H medium then maintained in 5H medium (which contains no TSH) or 4H medium (with no TSH and no insulin) for 6-8 days before experiments were initiated. Treatment with 5H or 4H medium synchronizes the cells by piling them up in G0/G1 (A. Hirai, et al., J. Biol. Chem. 272: 13-16 (1997); Y. Noguchi, et al., J. Biol. Chem. 273: 3649-3653 (1998)).
# DNA Staining and Cell Cycle Analysis—The procedure used was a modification of that described (P. Smerdely, et al., Endocrinology 133: 2403-2406 (1993)). It used the Cycle TEST PLUS DNA Reagent Kit (Becton Dickinson, San Jose, Calif.); and FACS analysis was performed according to the manufacturer's instructions. Briefly, 5×10^5 cells were incubated with 250 T1 of Solution A (trypsin buffer) for 10 min at room temperature, then 200 T1 of Solution B (trypsin inhibitor and ribonuclease A buffer) was added and further incubated for 10 min. Cold Solution C (propidium iodide stain solution) was added and incubated for 10 min at 4° C. in the dark. FACS analysis was performed using FACScan (Becton Dickinson, San Jose, Calif.). Each analysis was performed in triplicate on cells from 3 different plates; the histogram had at least 10,000 events and a coefficient of variation less than 5%.
# In the experiment above, there was a minimal direct methimazole effect on the cell cycle because the cells were maintained in 4H medium without insulin; methimazole action requires insulin (O. Isozaki, et al., Mol. Endocrinol, 3: 1681-1692 (1989); O. Isozaki, et al., Endocrinology 128: 3113-3121 (1991)). […] In this experiment, FRTL-5 cells were grown to near confluency in 6H medium, then shifted to 5H medium without TSH for 6 days. The experiments were initiated by returning the cells to 6H medium to reinitiate the cell cycle. Cells were treated with 5 mM methimazole and transfected or not with dsDNA or dsRNA. After 36 hours they were subjected to cell cycle analysis. […] In this experiment, FRTL-5 cells were grown to near confluency in 6H medium, then shifted to 5H medium without TSH for 6 days. The experiments were initiated by returning the cells to 6H medium to reinitiate the cell cycle. Cells were treated with 0.5 mM 5-phenylmethimazole (compound 10) and transfected or not with dsDNA or dsRNA. After 36 hours they were subjected to cell cycle analysis.
# human fibroblasts = test: Drug suppression of ds DNA or RNA effect in human fibroblasts; type: cell-based
# Source text: (§1) In this experiment (FIG. 6), cells were pretreated with MMI and compound 10 for 2 days before tranfection. […] The effect was therefore not thyroid cell restricted.
# female NOD mice = conditions: cited from earlier work
# mouse dendritic cells = test: Drug suppression of ds DNA or RNA effect in mouse dendritic cells; type: cell-based
# Source text: as §1
# HUVEC cells = test: Drug suppression of ds DNA or RNA effect in endothelia (HUVEC) cells; type: cell-based, human
# Source text: as §1
# [2] = tested on: MHC Class I and Class II gene expression; conditions: cited from earlier work
# female (NZBxNZW)F1 mice = conditions: cited from earlier work
# [3] = Control (no ds nucleic acid), FRTL-5 cells 6 days in 4 H medium without insulin or TSH
# [4] = transfected with dsDNA, FRTL-5 cells 6 days in 4 H medium
# [5] = transfected with dsRNA, FRTL-5 cells 6 days in 4 H medium
Molecule,"ability of dsDNA to increase MHC Class I, TAP-1, LMP2, MHC Class II, invariant chain, HLA-DM, and 90K gene expression [1]",dsDNA or dsRNA transfection efficiency [1],cell cycle arrest (FRTL-5 rat thyroid cells; 36 hours),percentage of cells in S + G2/M phase (FRTL-5 rat thyroid cells; [3]) [%],action of the ds nucleic acids on cell cycle progression (FRTL-5 rat thyroid cells),effect of ds nucleic acids on growth (FRTL-5 rat thyroid cells),percentage of cells in S + G2/M phase (FRTL-5 rat thyroid cells; [4]) [%],percentage of cells in S + G2/M phase (FRTL-5 rat thyroid cells; [5]) [%],activity as antimmune drug [2],further results
"1,3-dimethyl-4-phenylimidazoline-2-thione",,,,,,,,,,antiviral properties (vaccinia viruses): antiviral properties; antiviral properties (herpes simplex): antiviral properties
"Cn1cc[nH]c1=S [Methimazole, methimazole, reference compound]",INHIBIT,does not affect,arrest in the G2/M1 phase,6.3,inhibit,counteracts,11.4,7.4,,
"Cn1c(-c2ccccc2)c[nH]c1=S [Compound 10, 5-phenylmethimazole]",significantly decreases,does not affect,no such effect,10.5,inhibit,does not,11.0,4.5,most active,"effect on cells transfected with double strand DNA or RNA (human fibroblasts): similarly effective; ability of dsDNA to increase MHC Class I, TAP-1, LMP2, MHC Class II, invariant chain, HLA-DM, and 90K gene expression ([1]; listed as compound 10): better than 5 mM MMI; ability of dsRNA to increase MHC Class I, TAP-1, LMP2, MHC Class II, invariant chain, HLA-DM, and 90K gene expression [1]: decreases; ability of dsRNA to increase MHC Class I, TAP-1, LMP2, MHC Class II, invariant chain, HLA-DM, and 90K gene expression ([1]; listed as compound 10): better than MMI; expression of MHC and antigen-presenting genes, coincident transfection and treatment ([1]; no pretreatment): resulted in suppression; development of Diabetes (female NOD mice): suppress the development; effect on cells transfected with double strand DNA or RNA (mouse dendritic cells): similarly effective; effect on cells transfected with double strand DNA or RNA (HUVEC cells): similarly effective; potency relative to MMI [2]: 10- to 100 fold; development of systemic lupus erythematosus (SLE) (female (NZBxNZW)F1 mice): suppress the development; effect on ds nucleic acid effects on cell cycle (FRTL-5 rat thyroid cells; 5H then 6H medium, 0.5 mM compound 10, 36 hours): no effect"
"Sc1ncc[nH]1 [2-mercaptoimidazole, reference compound]",no effect,,,,,,,,inactive,
